The record followed here is publication PMC7948503, “Optimization of a peptide ligand for the adhesion GPCR ADGRG2 provides a potent tool to explore receptor biology” (The Journal of Biological Chemistry, 2020).

Starred links: 1 amine or outer side, 2 acyl side, 3 side chain; linkers in the order of their positions; H or OH if unused. Positions of bridges follow the written chain, without caps; N, C: chain ends. Non-standard residues stand in square brackets, D forms with d. Residues, ends and D or L forms follow the SMILES beside them. No end group written: not given here. X1 = CC(=O)NC(C(=O)OC(C(C)C)C(N[*:1])C(=O)[*:2])C(O)C(C)C; Phe(4-Me) = Cc1ccc(C[C@H](N)C(=O)O)cc1; 1Nal = N[C@@H](Cc1cccc2ccccc12)C(=O)O; PhLac = O=C(O)[CH](O)Cc1ccccc1; NMeT = CN[CH](C(=O)O)[CH](C)O; NMeA = CN[CH](C)C(=O)O; NMeDha = C=C(NC)C(=O)O

Broadly, the EC50 is the concentration that produces a half-maximal response. Read a high EC50 as lower potency in that assay.

Assay [1] has as its target T1, ADGRG2-ΔGPS-β (Mus musculus, UniProt Q8CJ12).
T1 construct: the entire ECD (including the entire GPS motif) was removed (ADGRG2-ΔGPS-β); expressed in transfected cells; host or cells: HEK293
In words: GloSensor cAMP assay, HEK293 transfected with ADGRG2-ΔGPS-β. It is filed as cell-based. The note with it: cAMP Glosensor; for EC50 compared with wildtype p15 or other mutants: concentration-response curves, ADGRG2-ΔGPS-β; for EC50: HEK293 transfected with ADGRG2-ΔGPS-β, increasing peptide concentration, repeated six times. The source says:
(§1) Wildtype ADGRG2 full-length (ADGRG2-FL) was cloned from mouse total cDNA libraries using the following primers: forward, […]; reverse, […], and then ADGRG2-FL, ADGRG2 C-terminal truncation mutant (ADGRG2-β), and ADGRG2-ΔGPS-β (the entire ECD of ADGRG2 was deleted) were subcloned into the pcDNA3.1 expression vector. The ADGRG2-ΔGPS-β mutants (T610A, Y611A, C614A, S661A, W662A, I663A, L665A, Y666A，N667A, F671A, L679A, L683A, I730A, V731A, F741A, F747A, W757A, I758A, N759A, S760A, V762A, F764A, Y765A, V768A, V769A, F772A, V774A, W824A, F826A, F828A, F829A, V834A, V836A, F838A, M839A, I844A, F845A) were generated using a QuikChange Mutagenesis Kit (Stratagene). All mutations were verified by DNA sequencing.
(§2) Human embryonic kidney 293 (HEK293) cells were maintained in Dulbecco’s modified Eagle’s medium supplemented with 10% fetal bovine serum, penicillin (100 IU/ml), and streptomycin (100 μg/ml) as described ([6], [38]). For receptor or other protein expression, plasmids carrying the desired genes were transfected into cells using Lipofectamine 2000 (Invitrogen).
(§3) The Glosensor cAMP assay was performed as described ([6], [39], [40]). HEK293 cells were transfected with the GloSensor plasmid and the desired expression plasmids in 24-well dishes. Twenty-four hours after transfection, the cells were plated on 96-well plates at a cell density of 20,000 cells/well. The cells were maintained in Dulbecco’s modified Eagle’s medium for another 24 h, washed with PBS, and then incubated with 100 μl of solution containing 10% fetal bovine serum, 2% (v/v) GloSensor cAMP reagent, and 88% CO2-independent medium in each well for 2 h. The cAMP signal was examined using a luminescence counter (Mithras LB 940).
A general note: cAMP levels reflect the balance of adenylyl cyclase and phosphodiesterase activity.

In assay [2] the test system is ADGRG2. Put plainly: CalfluxVTN Ca2+ assay. It is filed as cell-based, mouse. The note with it: Gq/11 selective inhibitor. The procedure:
For the Ca^2+ assays, HEK293 cells in 24-well dishes were cotransfected with plasmids encoding ADGRG2 or its mutants, CalfluxVTN constructs were used at a 6:1 ratio. Empty vector pcDNA3.1(+) was used to normalize the total amount of transfected plasmid DNA. The transfection and CalfluxVTN Ca^2+ assays were performed as previously reported ([28], [29], [41]) with minor modifications. In brief, 24 h post transfection, cells were harvested and distributed in 96-well flat-bottomed white microplates. After another 24 h, the cells were processed accordingly and then were added with the Nluc substrate furimazine (5 μM). The BRET signal was calculated by measuring the ratio of the light emitted by the Venus reporter (535 nm) relative to light emitted by the Nluc reporter (475 nm). The average baseline value (basal BRET ratio) recorded prior to agonist stimulation was subtracted from the experimental BRET signal values to obtain the ΔBRET ratio.

In assay [3] the target is T2, ADGRG2-FL (Mus musculus, UniProt Q8CJ12).
T2 construct: Wildtype ADGRG2 full-length (ADGRG2-FL) was cloned from mouse total cDNA libraries; expressed in transfected cells; host or cells: HEK293
T2 sequence (Q8CJ12 38-995 isoform Q8CJ12-3 limits assumed): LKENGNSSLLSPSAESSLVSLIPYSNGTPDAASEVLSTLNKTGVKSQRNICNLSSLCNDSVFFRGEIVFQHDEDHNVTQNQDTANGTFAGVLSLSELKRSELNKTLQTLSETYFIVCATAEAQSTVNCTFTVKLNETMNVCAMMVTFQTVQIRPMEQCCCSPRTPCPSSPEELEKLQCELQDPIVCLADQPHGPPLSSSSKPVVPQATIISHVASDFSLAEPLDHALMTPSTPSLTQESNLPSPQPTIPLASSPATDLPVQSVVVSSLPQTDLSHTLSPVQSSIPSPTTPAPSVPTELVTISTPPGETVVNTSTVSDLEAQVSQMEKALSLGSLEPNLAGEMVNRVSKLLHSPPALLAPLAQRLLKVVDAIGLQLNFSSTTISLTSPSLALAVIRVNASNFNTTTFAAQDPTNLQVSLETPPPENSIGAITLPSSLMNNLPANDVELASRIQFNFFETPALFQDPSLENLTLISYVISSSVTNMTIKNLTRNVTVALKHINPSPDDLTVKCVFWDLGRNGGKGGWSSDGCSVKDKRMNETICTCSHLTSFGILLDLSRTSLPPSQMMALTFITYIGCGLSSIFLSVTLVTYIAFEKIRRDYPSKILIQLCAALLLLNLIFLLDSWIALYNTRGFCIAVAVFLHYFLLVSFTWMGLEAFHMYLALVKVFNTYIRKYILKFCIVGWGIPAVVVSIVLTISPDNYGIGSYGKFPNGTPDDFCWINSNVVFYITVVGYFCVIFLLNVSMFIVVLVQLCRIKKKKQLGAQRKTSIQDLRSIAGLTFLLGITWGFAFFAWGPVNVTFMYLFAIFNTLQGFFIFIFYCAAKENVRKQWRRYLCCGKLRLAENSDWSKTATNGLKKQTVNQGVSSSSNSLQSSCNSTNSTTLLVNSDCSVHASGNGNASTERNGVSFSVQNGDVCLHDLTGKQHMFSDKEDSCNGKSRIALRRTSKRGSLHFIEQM
In words: GloSensor cAMP assay, HEK293 transfected with ADGRG2-FL. It is filed as cell-based. The conditions noted are these: for p15 activity after alanine substitution (cAMP level): alanine scanning, 100 μM peptide, HEK293 ADGRG2-FL, Glosensor, compared with p15-WT, repeated six times; for EC50: HEK293 transfected with ADGRG2-FL, increasing peptide concentration, cAMP Glosensor, repeated 6 times.
Source text: as §1, §2, §3

The target of assay [4] is Rluc-ADGRG2-ΔGPS-β wildtype (mouse).

T1 sequence (Q8CJ12 618-1009 limits assumed, stated change not applied): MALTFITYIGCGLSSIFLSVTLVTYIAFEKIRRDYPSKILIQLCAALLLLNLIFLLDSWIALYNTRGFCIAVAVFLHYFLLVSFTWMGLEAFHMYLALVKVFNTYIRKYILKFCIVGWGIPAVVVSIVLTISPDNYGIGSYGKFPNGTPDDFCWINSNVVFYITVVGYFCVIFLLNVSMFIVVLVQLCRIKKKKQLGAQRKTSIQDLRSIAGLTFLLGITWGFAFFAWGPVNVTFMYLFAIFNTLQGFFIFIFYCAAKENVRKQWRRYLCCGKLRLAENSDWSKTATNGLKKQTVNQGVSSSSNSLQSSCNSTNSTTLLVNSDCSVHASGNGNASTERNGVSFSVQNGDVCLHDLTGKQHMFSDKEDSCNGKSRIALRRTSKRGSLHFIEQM

As to `CC[C@H](C)[C@H](NC(=O)CNC(=O)[C@H](Cc1cccc2ccccc12)NC(=O)[C@H](CO)NC(=O)[C@@H](N)[C@@H](C)O)C(=O)N[C@@H](CC(C)C)C(=O)N[C@@H](CC(C)C)C(=O)N[C@@H](CC(=O)O)C(=O)N[C@@H](CC(C)C)C(=O)N[C@@H](CO)C(=O)N[C@@H](CCCNC(=N)N)C(=O)N[C@H](C(=O)N[C@@H](CO)C(=O)N[C@@H](CC(C)C)C(=O)N1CCC[C@H]1C(=O)O)[C@@H](C)O` [F3(1-Nal)] (H-TS[1Nal]GILLDLSRTSLP-OH), the “EC50 compared with wildtype p15 or other mutants” value in assay [1] was “lower EC50 value than wildtype p15”.

Turning to `CC[C@H](C)[C@H](NC(=O)CNC(=O)[C@H](Cc1ccc(C)cc1)NC(=O)[C@H](CO)NC(=O)[C@@H](N)[C@@H](C)O)C(=O)N[C@@H](CC(C)C)C(=O)N[C@@H](CC(C)C)C(=O)N[C@@H](CC(=O)O)C(=O)N[C@@H](CC(C)C)C(=O)N[C@@H](CO)C(=O)N[C@@H](CCCNC(=N)N)C(=O)N[C@H](C(=O)N[C@@H](CO)C(=O)N[C@@H](CC(C)C)C(=O)N1CCC[C@H]1C(=O)O)[C@@H](C)O` [F3Phe(4-Me)] (H-TS[Phe(4-Me)]GILLDLSRTSLP-OH), the “EC50 compared with wildtype p15 or other mutants” value in assay [1] is listed as “lower EC50 value than wildtype p15”.

Turning to `CC[C@H](C)[C@H](NC(=O)CNC(=O)[C@H](Cc1cccc2ccccc12)NC(=O)[C@H](CO)NC(=O)[C@@H](N)C(C)C)C(=O)N[C@@H](CC(C)C)C(=O)N[C@@H](CC(C)C)C(=O)N[C@@H](CC(=O)O)C(=O)N[C@@H](CC(C)C)C(=O)N[C@@H](CO)C(=O)N[C@@H](CCCNC(=N)N)C(=O)N[C@H](C(=O)N[C@@H](CO)C(=O)N[C@@H](CC(C)C)C(=O)N1CCC[C@H]1C(=O)O)[C@@H](C)O` [T1V/F3(1-Nal)] (H-VS[1Nal]GILLDLSRTSLP-OH), in assay [1], the EC50 was 4.7 µM and the “EC50 compared with wildtype p15 or other mutants” value is recorded as “significant lower EC50 than other mutants”.

Regarding `C=C1C(=O)NC(C)C(=O)N(C)C(C)C(=O)NC(C(OC(=O)C(NC(C)=O)C(O)C(C)C)C(C)C)C(=O)N(C)C(C(C)OC)C(=O)OC(C)C(NC(C)=O)C(=O)OC(Cc2ccccc2)C(=O)N1C` (centres unmarked) [YM-254890] (Ac-T[PhLac][NMeDha]A[NMeA][X1][NMeT](Me); ester 1-C; configuration not given here), the “inhibition of p15-elicited rise in intracellular calcium” value in assay [2] is recorded as “inhibited”.

As to “F3A: p15 alanine-scan mutant F3A (TSAGILLDLSRTSLP)”, the “p15 activity after alanine substitution (cAMP level)” value in assay [3] was “greatly impaired p15 activity”.

In assay [4], “FITC-conjugated VPM-p15 (ADGRG2 Stachel peptide p15 T1V/F3Phe(4-Me))” yielded an EC50 of cAMP accumulation (GloSensor assay), HEK293 cells transfected with ADGRG2-ΔGPS-β, increasing concentrations of VPM-p15 (without FITC) of 1.41 µM and a fold change of the EC50 of cAMP accumulation (GloSensor assay) against the wildtype p15 peptide, ADGRG2-ΔGPS-β in HEK293 cells of 170 fold.

Consider “R11A: p15 alanine-scan mutant R11A (TSFGILLDLSATSLP)”, for which the “p15 activity after alanine substitution (cAMP level)” value in assay [3] is reported as “greatly impaired p15 activity”.

In the case of TSFGILLDLSRTSAP [L14A], the EC50 in assay [3] was 274 µM.

“TSFGILLDLSRTSLP [p15, reference compound]”: the EC50 in assay [3] is 175 µM; in assay [1] it was 243 µM.

For the molecule VSFGILLDLSRTSLP [T1V], the “EC50 compared with wildtype p15 or other mutants” value in assay [1] is on record as “lower EC50 value than wildtype p15”.

On to VSFGILLDLSRTSLP [ADGRG2 Stachel peptide p15 T1V], for which, in assay [4], the cAMP accumulation (GloSensor assay), HEK293 cells transfected with ADGRG2-ΔGPS-β, 100 μM peptide, against wildtype p15 was determined as 3 fold.
